Broadly, the KD is a measure of binding affinity in units of concentration. Read a low KD as higher affinity.

Assay [1] deals with CTG palindrome d(CTGCTGCAGCAG) (DNA, duplex) CTGCTGCAGCAG
The assay is described as follows: ITC. Particulars: single binding model; representative curve K = (2.1 ± 0.3) ×10^6 M^-1.

Assay [2] has as its system r(CUG)4 (RNA, repeat) CUGCUGCUGCUG
The assay is described as follows: ITC. Particulars: single binding model; representative curve K = (1.06 ± 0.30) ×10^7 M^-1.

Turning to `N=C(N)c1ccc(-c2ccc(-c3ccc(C(=N)N)cc3)o2)cc1`, the results for the equilibrium dissociation constant (KD) in assay [1] and in assay [2] were 485 ± 73 nM and 99 ± 25 nM, respectively.

The values above are taken from publication PMC6343479 (2018).
